The text below walks through data of US20220177839A1, “COMPOSITION, CULTURE MEDIUM AND METHOD FOR INDUCING AND/OR AMPLIFYING TSCM IN VITRO” (SHANGHAI SINOBAY BIOTECHNOLOGY CO., LTD., priority 2019, published 2022).

The subject of the assay is human primary CD8^+T cells (CD3^+CD8^+). Nature of the assay: In-vitro induction and amplification of CD8+TSCM in culture media A to E (cell count, flow cytometry CD45RA, CCR7, CD95). In kind it is cell-based. The note with it: GSK-3β inhibitor. As to the method:
1) Pre-prepared human primary T cells (Shanghai Sinobay Bio-Tech Co., Ltd., hereinafter referred to as “Sinobay”) were selected by a magnetic bead negative selection method to obtain human primary CD8^+T cells (CD3^+CD8^+), and the human primary CD8^+T cells (CD3^+CD8^+) were placed in a 96-well U-bottom culture plate, with 5×10^4 CD8^+T cells in each well;
2) subsequently, culture media A to E and magnetic beads coupled to an anti-CD3 antibody and an anti-CD28 antibody were added into the culture plates containing the CD8^+T cells, wherein a ratio of the number of the magnetic beads to the number of the cells was 1:1; and fresh culture media A to E were supplemented at Day 4, Day 7, Day 10 and Day 13 of cell culture; and
3) the cells were counted at Day 0, Day 7 and Day 14 of cell culture respectively, flow cytometry antibodies (CD45RA, CCR7 and CD95) for detecting TSCM were incubated, and the TSCM was detected by using a flow cytometry.
For orientation: Flow cytometry measures light scatter and fluorescence of single cells or particles in a stream.

The structures appear in SMILES notation.

On to `Nc1cccc(-c2cc3c(Oc4cccc(O)c4)ncnc3[nH]2)c1` [TWS119], for which the “concentration range that effectively induces the formation of TSCM” value is 1 to 50 µM.
